Tests used:
[1] = test system: BT-20; assay: alamarBlue cytotoxicity assay, BT-20; type: cell-based; details: Homo sapiens; BT-20, alamarBlue
Description: (§1) Cytotoxicity Assays. Cell culture cytotoxicity assays were performed using the. alamarBlue method, as described by Ahmed et al., J. Immun. Methods 1994, 170, 211-224, which is incorporated herein by reference. Briefly, aliquots of 100 μL of cell suspension (1.0-2.5×10^3 cells) was placed in 96-well microtiter plates in an atmosphere of 5% CO2 at 37° C. After 24 hours, 100 μL of culture medium and 2 μL of compound in vehicle (culture media with 40% pyridine) or vehicle alone were added, and the plates incubated an additional 72 hours. The final pyridine concentration in all cases was 0.4%; at this pyridine concentration there was no affect on the growth of cells compared to cells in culture media without added pyridine. […] After the culture media had been removed from each well, 200 μL of fresh media and 20 μL of 90% alamarBlue reagent were added, followed by an additional 6 h incubation. The fluorescent intensity was measured using a Spectrafluor Plus plate reader with excitation at 530 nm and emission at 590 nm. Results are reported as IC50 values, the average concentration required to produce a decrease of fluorescent intensity of 50% relative to vehicle-treated controls in two separate determinations.

[2] = test system: SK-N-D7; assay: alamarBlue cytotoxicity assay, SK-N-D7; type: cell-based
Description: as §1

[3] = test system: CHP-212; assay: alamarBlue cytotoxicity assay, CHP-212; type: cell-based; details: Homo sapiens; CHP-212, alamarBlue
Description: as §1

[4] = test system: Staphylococcus aureus ATCC 29213; assay: Antimicrobial bioassay, S. aureus; type: cell-based; details: Staphylcoccus aureus, concentrations up to 50 μg/mL
Description: Antimicrobial Bioassay: Staphylococcus aureus ATCC 29213 and methicillin-resistant S. aureus ATCC 43300 (MRS) were obtained from the American Type Culture Collection (Rockville, Md.) and stored on agar slants at 4° C. until needed. Susceptibility testing was performed using a modified version of the NCCLS methods: “Methods for Dilution Antimicrobial Susceptibility Tests for Bacteria that Grow Aerobically,” M7-A4, Vol. 17, No. 2, NCCLS, (1997) and “Reference Method for Broth Dilution Antifungal Susceptibility Testing of Yeasts; Approved Standard,” M27-A, Vol. 17, No. 9, NCCLS, (1997), both of which are incorporated herein by reference. Microorganisms were subcultured prior to the assay by suspending cells from the slant in Eugon broth (BBL, Maryland) and incubating for 24 hours at 37° C. Inocula were prepared by diluting the subcultured organism in its incubation broth after comparison to the 0.5 McFarland Standard (a BaSO4 suspension) to afford final inocula ranges of S. aureus: 1.0-5.0×10^5 and MRS: 0.2-6.0×10^5 CFU/ml. Test compounds were dissolved in DMSO, serially-diluted using normal saline, and transferred in duplicate to 96 well flat-bottomed microtiter plates. The microbial inocula were added to the samples to achieve a final volume of 200 μl and final compound concentrations starting with 50 μg/ml. Drug [Ciprofloxacin (ICN Biomedicals, Ohio)] as well as growth and blank (media only) controls were added to each test plate. Plates were read at 630 nm using the EL-340 Biokinetics Reader (Bio-Tek Instruments, Vermont) prior to and after incubation at 37° C. for 24 hours. Percent growth was calculated and plotted versus concentration to afford the IC50, or sample concentration that affords 50% growth of the organism relative to controls.

[5] = test system: NGP neuroblastoma cell line; assay: alamarBlue cytotoxicity assay, NGP; type: cell-based
Description: as §1

[6] = test system: gram-positive or gram negative bacteria; details: gram-positive or gram negative bacteria, concentrations as large as 250 μM; cited from earlier work
[7] = test system: Pseudomonas aeruginosa; assay: Antimicrobial bioassay, P. aeruginosa; type: cell-based; details: concentrations up to 50 μg/mL
[8] = test system: Supercoiled ΦX174 DNA; assay: Cleavage of supercoiled DNA, agarose gel electrophoresis; type: biochemical; details: 37° C.
Description: Supercoiled Φ[…] DNA (50 μM) was incubated for 24 hrs in pH 8 Tris buffer (10 mM) at 37° C. with UK-1 (15-25 μM), H2O2 (5 μM-5 mM), or NiCl2 (15-25 μM), or a combination of these agents. Agarose gel electrophoresis was carried out to resolve the DNA products. […] There was an increase in the proportion of nicked, relaxed DNA product in the presence of an oxidant (e.g., H2O2), but no linear DNA that would indicate double-stranded DNA cleavage. […] FIG. 5 depicts cleavage of supercoiled DNA by UK-1 in the presence of oxidizing agents and metal ions. Supercoiled Φ[…] DNA (50 μM bp) was incubated with UK-1 (23 μM), NiCl2 (23 μM), H2O2 (5 mM), or combinations of these agents at 37° C. for 24 h and the DNA products subjected to agarose gel electrophoresis with ethidium bromide staining. Lanes: C, untreated supercoiled DNA; 1, DNA+UK-1; 2, DNA+NiCl2; 3, DNA+H2O2; 4, DNA+UK-1+NiCl2; 5, DNA+UK-1+H2O2; 6, DNA+UK-1+NiCl2+H2O2; 7, DNA+NiCl2+H2O2.

[9] = test system: SKBR3; assay: alamarBlue cytotoxicity assay, SKBR3; type: cell-based; details: Homo sapiens, SK-BR-3
Description: as §1

SMILES: COC(=O)c1cccc2oc(-c3cccc4oc(-c5ccccc5O)nc34)nc12 [UK-1]
- IC50 [1]: 170 nM
- IC50 [2]: 170 nM
- IC50 [3]: 12000 nM
- antibacterial effect [4]: no indication of any antibacterial effect
- IC50 ([5]; alamarBlue): 20 nM
- IC50 ([5]; bound stated): < 100 nM
- growth inhibition [6]: does not inhibit the growth
- antibacterial effect [7]: no indication of any antibacterial effect
- DNA cleavage ([8]; UK-1 and an oxidant (H2O2), 24 hrs): significantly more DNA cleavage
- DNA cleavage ([8]; UK-1 only, 24 hrs, pH 8 Tris buffer): no evidence of DNA cleavage
- DNA cleavage ([8]; combination of UK-1, H2O2, and NiCl2, 24 hrs): particularly active in inducing DNA cleavage
- IC50 [9]: 100 nM

— patent US7294643B2, “UK-1 analogues: methods of preparation and use” (Board of Regents, The University of Texas System, priority 2002, dated 2007)
